Reference: US7928140B2, “Benzothiazole PI3 kinase modulators for cancer treatment” (Amgen Inc., priority 2007, dated 2011)

How the values were obtained:
PI3K α = target: T1, PI3K α (Homo sapiens, UniProt P42336); assay: In vitro PI3 kinase enzyme assay (alpha), ATP loss, bioluminescence; assay type: biochemical; details: read-out: PI3Kα ATP loss IC50;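 note: purified p110α/p85 heterodimer acting on PtdIns(4,5)P2 at room temperature, remaining ATP read by luminescence, inhibition scaled between compound-free wells with and without enzyme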
T1 construct: Full length p110 subunits of PI3K α, β and δ, N-terminally labeled with polyHis tag; polyHis (N); made in house; host or cells: Sf9 insect cells (baculovirus)
T1 sequence (P42336 whole entry, species assumed): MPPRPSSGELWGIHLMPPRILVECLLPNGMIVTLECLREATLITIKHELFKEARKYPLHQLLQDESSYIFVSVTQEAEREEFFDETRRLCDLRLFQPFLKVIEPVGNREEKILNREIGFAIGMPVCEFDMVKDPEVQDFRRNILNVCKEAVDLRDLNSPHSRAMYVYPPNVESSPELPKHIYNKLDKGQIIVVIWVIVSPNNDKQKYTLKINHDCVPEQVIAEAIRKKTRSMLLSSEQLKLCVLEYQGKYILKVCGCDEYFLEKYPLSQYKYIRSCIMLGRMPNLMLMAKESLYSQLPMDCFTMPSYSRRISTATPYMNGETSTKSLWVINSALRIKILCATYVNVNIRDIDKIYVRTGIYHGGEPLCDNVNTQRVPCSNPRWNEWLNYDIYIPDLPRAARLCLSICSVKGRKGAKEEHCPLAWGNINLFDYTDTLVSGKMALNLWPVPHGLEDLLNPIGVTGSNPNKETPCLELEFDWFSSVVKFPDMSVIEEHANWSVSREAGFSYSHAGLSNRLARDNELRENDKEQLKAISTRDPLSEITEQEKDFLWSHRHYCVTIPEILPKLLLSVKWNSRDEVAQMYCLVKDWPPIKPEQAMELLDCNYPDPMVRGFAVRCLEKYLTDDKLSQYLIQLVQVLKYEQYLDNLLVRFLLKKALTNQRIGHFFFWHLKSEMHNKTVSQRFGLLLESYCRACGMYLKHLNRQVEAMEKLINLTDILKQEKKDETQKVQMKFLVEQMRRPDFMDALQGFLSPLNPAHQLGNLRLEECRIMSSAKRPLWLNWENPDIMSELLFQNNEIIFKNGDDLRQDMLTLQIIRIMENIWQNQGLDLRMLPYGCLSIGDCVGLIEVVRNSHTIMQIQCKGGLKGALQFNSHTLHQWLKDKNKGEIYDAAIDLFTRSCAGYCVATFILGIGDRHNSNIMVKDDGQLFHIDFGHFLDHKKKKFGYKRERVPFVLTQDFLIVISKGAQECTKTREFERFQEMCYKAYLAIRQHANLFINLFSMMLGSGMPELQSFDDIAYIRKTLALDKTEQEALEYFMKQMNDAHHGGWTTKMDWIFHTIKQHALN
T1 sequence (P27986 whole entry partner, species assumed): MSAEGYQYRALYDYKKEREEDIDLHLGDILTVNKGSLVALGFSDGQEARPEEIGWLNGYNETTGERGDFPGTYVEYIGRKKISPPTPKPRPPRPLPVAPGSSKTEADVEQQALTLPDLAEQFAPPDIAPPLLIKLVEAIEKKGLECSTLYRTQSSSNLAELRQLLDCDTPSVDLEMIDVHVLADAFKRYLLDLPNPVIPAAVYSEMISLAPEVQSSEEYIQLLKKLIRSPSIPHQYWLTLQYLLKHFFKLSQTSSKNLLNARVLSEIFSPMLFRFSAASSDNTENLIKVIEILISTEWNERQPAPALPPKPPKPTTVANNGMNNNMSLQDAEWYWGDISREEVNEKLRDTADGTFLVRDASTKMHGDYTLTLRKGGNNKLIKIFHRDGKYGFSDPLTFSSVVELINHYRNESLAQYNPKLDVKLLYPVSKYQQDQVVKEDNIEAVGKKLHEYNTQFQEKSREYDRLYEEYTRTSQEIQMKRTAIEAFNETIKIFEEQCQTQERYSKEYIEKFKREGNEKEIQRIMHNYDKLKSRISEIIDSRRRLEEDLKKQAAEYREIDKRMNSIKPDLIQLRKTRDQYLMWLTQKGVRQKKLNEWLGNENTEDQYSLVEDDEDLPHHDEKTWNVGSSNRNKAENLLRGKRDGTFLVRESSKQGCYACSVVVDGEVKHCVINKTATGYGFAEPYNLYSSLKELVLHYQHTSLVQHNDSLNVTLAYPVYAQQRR

PI3K β = target: T2, PI3K β (Homo sapiens, UniProt P42338); assay: In vitro PI3 kinase enzyme assay (beta), ATP loss, bioluminescence; assay type: biochemical; details: read-out: PI3Kβ ATP loss IC50;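 note: purified p110β/p85 heterodimer with PtdIns(4,5)P2 as acceptor, incubated at room temperature, leftover ATP read by luminescence, inhibition scaled to compound-free wells with and without enzyme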
T2 construct: Full length p110 subunits of PI3K α, β and δ, N-terminally labeled with polyHis tag; polyHis (N); made in house; host or cells: Sf9 insect cells (baculovirus)
T2 sequence (P42338 whole entry): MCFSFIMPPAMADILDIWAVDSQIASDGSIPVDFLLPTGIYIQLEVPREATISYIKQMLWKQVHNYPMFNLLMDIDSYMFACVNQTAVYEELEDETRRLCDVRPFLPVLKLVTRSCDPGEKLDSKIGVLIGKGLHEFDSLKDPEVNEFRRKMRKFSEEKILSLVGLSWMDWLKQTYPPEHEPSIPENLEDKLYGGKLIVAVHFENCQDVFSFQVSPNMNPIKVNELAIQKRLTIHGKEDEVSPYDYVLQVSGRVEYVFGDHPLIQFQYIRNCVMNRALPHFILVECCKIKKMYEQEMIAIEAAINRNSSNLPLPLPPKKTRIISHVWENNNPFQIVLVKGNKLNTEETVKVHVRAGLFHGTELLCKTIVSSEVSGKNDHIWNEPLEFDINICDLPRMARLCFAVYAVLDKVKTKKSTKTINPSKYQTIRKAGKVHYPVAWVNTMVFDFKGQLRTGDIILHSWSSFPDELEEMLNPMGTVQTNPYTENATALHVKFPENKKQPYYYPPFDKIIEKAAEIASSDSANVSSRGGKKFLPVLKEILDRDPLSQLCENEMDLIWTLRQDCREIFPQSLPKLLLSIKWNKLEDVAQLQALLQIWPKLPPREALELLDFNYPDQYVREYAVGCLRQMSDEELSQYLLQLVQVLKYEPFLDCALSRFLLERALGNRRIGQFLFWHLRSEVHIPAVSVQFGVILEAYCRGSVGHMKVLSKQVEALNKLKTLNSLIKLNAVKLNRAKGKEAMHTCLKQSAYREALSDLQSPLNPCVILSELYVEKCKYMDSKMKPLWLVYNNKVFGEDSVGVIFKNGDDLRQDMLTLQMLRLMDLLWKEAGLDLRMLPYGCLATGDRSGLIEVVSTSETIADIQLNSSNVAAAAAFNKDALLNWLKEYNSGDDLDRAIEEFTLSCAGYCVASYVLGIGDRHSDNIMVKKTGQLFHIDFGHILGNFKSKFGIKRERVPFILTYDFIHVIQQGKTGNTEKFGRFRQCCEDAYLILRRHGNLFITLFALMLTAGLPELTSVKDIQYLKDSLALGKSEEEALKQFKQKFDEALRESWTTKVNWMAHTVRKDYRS
T2 sequence (P27986 whole entry partner): as the sequence (P27986 whole entry partner, species assumed) above

Row | Compound | IC50 (PI3K α) [µM] | IC50 (PI3K β) [µM]
1 | CC(=O)Nc1nc2ccc(-c3csc(S(=O)(=O)c4ccccc4)n3)cc2s1 [Example 64, N-(6-(2-(phenylsulfonyl)thiazol-4-yl)benzo[d]thiazol-2-yl)acetamide] | 0.846 | > 40
2 | COCCOCOc1cc(-c2ccc3nc(NC(C)=O)sc3c2)cnc1Cl [Example 292, N-(6-(6-chloro-5-((2-methoxyethoxy)methoxy)pyridin-3-yl)benzo[d]thiazol-2-yl)acetamide] | 0.164 | 2.08
3 | Nc1nc2ccc(-c3ccnc(NCCCc4ccccc4)n3)cc2s1 [Example 45, 6-(2-(3-Phenylpropylamino)pyrimidin-4-yl)benzo[d]thiazol-2-amine] | 1.97 | 0.455
4 | CC(=O)Nc1nc2ccc(-c3ccnc(N(C)S(=O)(=O)c4ccc(C)cc4)c3)cc2s1 [Example 215, N-(6-(2-(N,4-dimethylphenylsulfonamido)pyridin-4-yl)benzo[d]thiazol-2-yl)acetamide] | 0.438 | 0.45
5 | CC(=O)Nc1nc2ccc(-c3cnc(OCCN(C)C)c(NC(C)C)c3)cc2s1 [Example 159, N-(6-(6-(2-(dimethylamino)ethoxy)-5-(isopropylamino)pyridin-3-yl)benzo[d]thiazol-2-yl)acetamide] | 0.914 | 3.74
6 | CC(=O)Nc1nc2ccc(-c3ccnc(NS(=O)(=O)c4cccnc4)n3)cc2s1 [Example 79, N-(6-(2-(pyridine-5-sulfonamido)pyrimidin-4-yl)benzo[d]thiazol-2-yl)acetamide] | 0.0606 | 0.849
7 | CC(=O)Nc1nc2ccc(-c3cncc(OC(C)CN4CCOCC4)c3)cc2s1 (stereo not shown) [Example 231, N-(6-(5-(1-morpholinopropan-2-yloxy)pyridin-3-yl)benzo[d]thiazol-2-yl)acetamide] | 0.637 | 15.7
8 | CN(C)CC(=O)Nc1nc2ccc(-c3ccnc(OCc4ccccc4)n3)cc2s1 [Example 59, N-(6-(2-(benzyloxy)-4-pyrimidinyl)-1,3-benzothiazol-2-yl)-N~2~,N~2~-dimethylglycinamide] | 11.3 | 9.8
9 | CC(=O)Nc1nc2ccc(-c3ccnc(N(C)C)n3)cc2s1 [Example 52, N-(6-(2-(dimethylamino)-4-pyrimidinyl)-1,3-benzothiazol-2-yl)acetamide] | 2.58 | > 40
10 | CC(=O)Nc1nc2ccc(-c3ccnc(Cc4ccccc4)n3)cc2s1 [Example 13, N-(6-(2-Benzylpyrimidin-4-yl)benzo[d]thiazol-2-yl)acetamide] | 4.48 | > 40
11 | COc1ccc(S(=O)(=O)Nc2cc(-c3ccc4nc(NC(=O)C5CCCCC5)sc4c3)cnc2Cl)cc1 [Example 304, N-(6-(6-chloro-5-(((4-methoxyphenyl)sulfonyl)amino)-3-pyridinyl)-1,3-benzothiazol-2-yl)cyclohexanecarboxamide] | 0.0163 | 0.0292
12 | CC(=O)Nc1nc2ccc(-c3cncc(OCCN4CCC(F)C4=O)c3)cc2s1 (stereo not shown) [Example 255] | 0.793 | > 40
13 | COCCCNc1nccc(-c2ccc3nc(NC(C)=O)sc3c2)n1 [Example 46, N-(6-(2-((3-methoxypropyl)amino)-4-pyrimidinyl)-1,3-benzothiazol-2-yl)acetamide] | 1.21 | 20.4
14 | CC(=O)Nc1nc2ccc(-c3ccnc(OC4CCN(C)CC4)n3)cc2s1 [Example 31, N-(6-(2-((1-methyl-4-piperidinyl)oxy)-4-pyrimidinyl)-1,3-benzothiazol-2-yl)acetamide] | 2.38 | > 40
15 | CC(=O)Nc1nc2ccc(-c3cc(C)nc(N)n3)cc2s1 [Example 101, N-(6-(2-Amino-6-methylpyrimidin-4-yl)benzo[d]thiazol-2-yl)acetamide] | 4.19 | 9.99
16 | Cc1ccc(S(=O)(=O)Nc2nnc(-c3ccc4nc(N)sc4c3)o2)cc1 [Example 165, N-(5-(2-Aminobenzo[d]thiazol-6-yl)-1,3,4-oxadiazol-2-yl)-4-methylbenzenesulfonamide] | 0.197 | 0.171
17 | CC(=O)Nc1nc2ccc(-c3cc(OC(C)C#N)cnc3Cl)cc2s1 (stereo not shown) [Example 291, N-(6-(2-chloro-5-(1-cyanoethoxy)pyridin-3-yl)benzo[d]thiazol-2-yl)acetamide] | 0.983 | 3.79
18 | CC(=O)Nc1nc2ccc(-c3cncc(OCCN4CCOC4=O)c3)cc2s1 [Example 232, N-(6-(5-(2-(2-oxooxazolidin-3-yl)ethoxy)pyridin-3-yl)benzo[d]thiazol-2-yl)acetamide] | 0.837 | 7.44
19 | COc1cccc(-c2cccc3nc(NC(C)=O)sc23)c1 [Example 96, N-(7-(3-methoxyphenyl)-1,3-benzothiazol-2-yl)acetamide] | 1.68 | > 40

Row | Compound | IC50 (PI3K α) [µM] | IC50 (PI3K β) [µM]
20 | CC(=O)Nc1nc2ccc(-c3ccnc(SCc4ccccc4C)n3)cc2s1 [Example 37, N-(6-(2-((2-methylbenzyl)sulfanyl)-4-pyrimidinyl)-1,3-benzothiazol-2-yl)acetamide] | 0.119 | 4.12
21 | CC(=O)Nc1nc2ccc(-c3cncc(OCCN4CCCCCC4)c3)cc2s1 [Example 234, N-(6-(5-(2-(azepan-1-yl)ethoxy)pyridin-3-yl)benzo[d]thiazol-2-yl)acetamide] | 2.49 | 9.98
22 | CC(=O)Nc1nc2ccc(-c3ccnc(N(C)S(=O)(=O)c4cccc5cnccc45)n3)cc2s1 [Example 208, N-(6-(2-(N-methylisoquinoline-5-sulfonamido)pyrimidin-4-yl)benzo[d]thiazol-2-yl)acetamide] | 0.462 | 0.743
23 | CC(=O)Nc1nc2ccc(-c3ccnc(OCCCO)n3)cc2s1 [Example 102, N-(6-(2-(3-hydroxypropoxy)-4-pyrimidinyl)-1,3-benzothiazol-2-yl)acetamide] | 0.664 | > 40
24 | CC(C)(C)OC(=O)Nc1nc2ccc(-c3nnc(N(Cc4ccccc4)S(C)(=O)=O)o3)cc2s1 [Example 170, tert-Butyl 6-(5-(N-benzylmethan-9-ylsulfonamido)-1,3,4-oxadiazol-2-yl)benzo[d]thiazol-2-ylcarbamate] | 3.91 | 4.76
25 | CC(=O)Nc1nc2ccc(-c3ccnc(Sc4cc(C)ccc4C)n3)cc2s1 [Example 123, N-(6-(2-((2,5-dimethylphenyl)sulfanyl)-4-pyrimidinyl)-1,3-benzothiazol-2-yl)acetamide] | 0.0235 | 0.537
26 | CC(=O)Nc1nc2ccc(-c3ccnc(CCCc4ccccc4)n3)cc2s1 [Example 14, N-(6-(2-(3-phenylpropyl)-4-pyrimidinyl)-1,3-benzothiazol-2-yl)acetamide] | 2.75 | 10.7
27 | COc1cccc(Sc2nccc(-c3ccc4nc(NC(C)=O)sc4c3)n2)c1 [Example 41, N-(6-(2-((3-methoxyphenyl)sulfanyl)-4-pyrimidinyl)-1,3-benzothiazol-2-yl)acetamide] | 0.192 | 0.126
28 | CC(=O)Nc1nc2ccc(-c3cnc(OC(F)F)cc3C)cc2s1 [Example 250, N-(6-(6-(difluoromethoxy)-4-methylpyridin-3-yl)benzo[d]thiazol-2-yl)acetamide] | 11.9 | 27.5
29 | CC(=O)Nc1nc2ccc(-c3cncc(N(C)S(=O)(=O)c4ccc(F)cc4)c3)cc2s1 [Example 219, N-(6-(5-(4-fluoro-N-methylphenylsulfonamido)pyridin-3-yl)benzo[d]thiazol-2-yl)acetamide] | 0.375 | 2.93
30 | CC(C)(C)OC(=O)Nc1nc2ccc(-c3nnc(NCc4ccccc4)o3)cc2s1 [Example 169, tert-Butyl 6-(5-(benzylamino)-1,3,4-oxadiazol-2-yl)benzo[d]thiazol-2-ylcarbamate] | 4.24 | 2.69
31 | CC(=O)Nc1nc2ccc(-c3ccnc(N(C)S(=O)(=O)c4ccc(F)cc4)n3)cc2s1 [Example 203, N-(6-(2-(4-fluoro-N-methylphenylsulfonamido)pyrimidin-4-yl)benzo[d]thiazol-2-yl)acetamide] | 0.324 | 0.93
32 | O=C(CN1CCOCC1)Nc1nc2ccc(-c3ccnc(OCc4ccccc4)n3)cc2s1 [Example 54, N-(6-(2-(benzyloxy)-4-pyrimidinyl)-1,3-benzothiazol-2-yl)-2-(4-morpholinyl)acetamide] | 7.33 | > 40
33 | CCC(=O)Nc1nc2ccc(-c3ccnc(OCc4ccccc4)n3)cc2s1 [Example 57, N-(6-(2-(benzyloxy)-4-pyrimidinyl)-1,3-benzothiazol-2-yl)propanamide] | 0.277 | 8.83
34 | O=C(Nc1nc2ccc(-c3ccnc(OCc4ccccc4)n3)cc2s1)c1ccccc1 [Example 58, N-(6-(2-(benzyloxy)-4-pyrimidinyl)-1,3-benzothiazol-2-yl)benzamide] | > 40 | 3.93
35 | COc1cc(C)c(-c2ccc3nc(NC(C)=O)sc3c2)cn1 [Example 244, N-(6-(6-methoxy-4-methylpyridin-3-yl)benzo[d]thiazol-2-yl)acetamide] | 0.688 | 2.99
36 | CC(=O)Nc1nc2ccc(-c3ccnc(OCc4ccc5[nH]ccc5c4)n3)cc2s1 [Example 24, N-(6-(2-(1H-indol-5-ylmethoxy)-4-pyrimidinyl)-1,3-benzothiazol-2-yl)acetamide] | 8.03 | 8.86
37 | COc1ccc(OC)c(Sc2nccc(-c3ccc4nc(NC(C)=O)sc4c3)n2)c1 [Example 158, N-(6-(2-((2,5-dimethoxyphenyl)sulfanyl)-4-pyrimidinyl)-1,3-benzothiazol-2-yl)acetamide] | 0.831 | 0.426
38 | COc1ccc(S(=O)(=O)c2ncc(-c3ccc4nc(NC(C)=O)sc4c3)s2)cc1 [Example 61, N-(6-(2-(4-methoxyphenylsulfonyl)thiazol-5-yl)benzo[d]thiazol-2-yl)acetamide] | 38.8 | 31
